# Laboratory results taken from ChEMBL document CHEMBL6087458, “The Discovery of a Novel AXL/Triple Angiokinase Inhibitor Based on 6-Chloro-Substituted Indolinone and Side Chain Methyl Substitution Inhibiting Pancreatic Cancer Growth and Metastasis” (J Med Chem, 2025).
# Calls of active or inactive are those of the source. The rule behind the calls is not given here.
# Experiments:
# [1] = Metabolic stability in rat liver microsome assessed as half life measured upto 240 mins by HPLC analysis; format: ADME; conditions: liver microsomes
# BXPC-3 [2] = experiment: Antitumor activity against human BXPC-3 cells xenografted in mouse assessed as tumor growth inhibition at 50 mg/kg, po administered for 14 days; format: functional; conditions: BXPC-3, 336 h, time 14 day, read-out: TGI
# Mitochondrial membrane [3] = experiment: Induction of mitochondrial membrane potential depolarization in human BXPC-3 cells at 0.2 to 0.5 uM incubated for 24 hrs by JC-1 staining based flow cytometry analysis; format: cell membranes; conditions: dose 0.2-0.5 µM
# MDA-MB-231 [4] = experiment: Effect on E-cadherin expression in TGF-beta induced human MDA-MB-231 cells at 0.1 to 0.5 uM incubated for 24 hrs by immunofluorescence assay; format: functional, cell-based; conditions: dose 0.1-0.5 µM
# Mitochondrial membrane [5] = experiment: Induction of mitochondrial membrane potential in mouse NIH/3T3 cells assessed as decrease in red fluorescence intensity incubated for 48 hrs by JC-1 staining based flow cytometry; format: cell membranes
# Mitochondrial membrane [6] = experiment: Induction of mitochondrial membrane potential in mouse NIH/3T3 cells assessed as increase in green fluorescence intensity incubated for 48 hrs by JC-1 staining based flow cytometry; format: cell membranes
# [7] = Cytotoxicity against human MCF-10A cells assessed as inhibition of cell growth; format: toxicity, cell-based
# NIH3T3 [8] = experiment: Anti-fibrotic activity in mouse NIH3T3 cells assessed as reduction in fibronectin expression incubated for 48 hrs by Western blot analysis; format: functional, cell-based
# BXPC-3 [9] = experiment: Down regulation of Ki67 expression in human BXPC-3 cells by immunofluorescence assay; format: functional, cell-based
# BXPC-3 [10] = experiment: Induction of apoptosis in human BXPC-3 cells assessed as increase in BAX expression at 0.1 to 1 uM incubated for 24 hrs by Western blot analysis; format: functional, cell-based; conditions: dose 0.1-1 µM
# [11] = Toxicity in mouse implanted with human BXPC-3 cells at 25 to 50 mg/kg, po measured on day 11; format: organism-based; conditions: in vivo, 264 h, dose 25-50 mg/kg, time 11 day
# [12] = Cytotoxicity against human HUVEC cells assessed as cell viability incubated for 72 hrs by MTT assay; format: toxicity, cell-based
# PC-9 = experiment: cells; conditions: Homo sapiens, PC-9, 72 h
# Description: Antiproliferative activity against human PC-9 cells assessed as cell viability incubated for 72 hrs by MTT assay
# Homo sapiens [13] = organism: Homo sapiens; experiment: Inhibition of PDGFR (unknown origin) by envision reader analysis
# MDA-MB-231 [14] = experiment: Induction of apoptosis in human MDA-MB-231 cells assessed as decrease in Bcl-2 expression at 0.1 to 1 uM incubated for 24 hrs by Western blot analysis; format: functional, cell-based; conditions: dose 0.1-1 µM
# [15] = Oral bioavailability in Sprague-Dawley rat at 50 mg/kg; format: ADME, organism-based; conditions: Sprague-Dawley, in vivo
# MDA-MB-231 [16] = experiment: Inhibition of colony formation in human MDA-MB-231 cells at 0.5 uM incubated for 72 hrs; format: functional, cell-based
# MDA-MB-231 [17] = experiment: Down regulation of Ki67 expression in human MDA-MB-231 cells by immunofluorescence assay; format: functional, cell-based
# [18] = AUC (0 to last) in Sprague-Dawley rat at 50 mg/kg, po; format: ADME, organism-based; conditions: Sprague-Dawley, in vivo
# SW480 = experiment: cells; conditions: Homo sapiens, SW480, 72 h
# Description: Antiproliferative activity against human SW480 cells assessed as cell viability incubated for 72 hrs by MTT assay
# BXPC-3 [19] = experiment: Antitumor activity against human BXPC-3 cells xenografted in mouse assessed as tumor growth inhibition at 25 mg/kg, po administered for 14 days; format: functional; conditions: BXPC-3, 336 h, time 14 day, read-out: TGI
# MDA-MB-231 [20] = experiment: Induction of apoptosis in human MDA-MB-231 cells assessed as increase in BAX expression at 0.1 to 1 uM incubated for 24 hrs by Western blot analysis; format: functional, cell-based; conditions: dose 0.1-1 µM
# [21] = Toxicity in mouse implanted with human BXPC-3 cells assessed as mortality at 25 to 50 mg/kg, po measured on day 11; format: organism-based; conditions: in vivo, 264 h, dose 25-50 mg/kg, time 11 day
# HUVEC = experiment: Inhibition of cell migration in human HUVEC cells assessed as decrease in migrating cells at 0.5 uM incubated for 24 hrs by wound healing assay; format: functional, cell-based
# BXPC-3 [22] = experiment: Antitumor activity against human BXPC-3 cells xenografted in mouse assessed as reduction in tumor weight at 25 mg/kg, po administered for 14 days; format: functional; design: scale not given: the % may be the effect or the level left; conditions: time 14 day
# [23] = Toxicity in mouse implanted with human BXPC-3 cells assessed as liver damage at 50 mg/kg, po by H and E staining based analysis; format: organism-based; conditions: in vivo
# [24] = Toxicity in mouse implanted with human BXPC-3 cells assessed as heart damage at 50 mg/kg, po by H and E staining based analysis; format: organism-based; conditions: in vivo
# BXPC-3 [25] = experiment: Antitumor activity against human BXPC-3 cells xenografted in mouse assessed as effect on E-cadherin expression in tumor at 25 to 50 mg/kg, po administered for 14 days; format: functional, organism-based; conditions: dose 25-50 mg/kg, time 14.0 day
# [26] = molecular target: Serine/threonine-protein kinase SIK2 (Homo sapiens) (UniProt Q9H0K1); experiment: Inhibition of QIK (unknown origin) by envision reader analysis
# cells = conditions: Homo sapiens, CDDP-resistant A549 cell, 72 h
# Description: Antiproliferative activity against human CDDP-resistant A549 cell assessed as cell viability incubated for 72 hrs by MTT assay
# MDA-MB-231 [27] = experiment: cells; conditions: Homo sapiens, MDA-MB-231, 72 h
# Description: Antiproliferative activity against human MDA-MB-231 cells assessed as cell viability incubated for 72 hrs by MTT assay
# [28] = molecular target: Signal transducer and activator of transcription 3 (Homo sapiens) (UniProt P40763); experiment: Inhibition of STAT3 phosphorylation in human MDA-MB-231 cells incubated for 24 to 72 hrs by Western blot analysis; format: cell-based; conditions: dose <= 5.0 µM, time 24-72 hrs
# BXPC-3 [29] = experiment: Antitumor activity against human BXPC-3 cells xenografted in mouse assessed as reduction in tumor weight at 50 mg/kg, po administered for 14 days; format: functional; design: scale not given: the % may be the effect or the level left; conditions: time 14 day
# NIH3T3 [30] = experiment: Antiproliferative activity against mouse NIH/3T3 cells cultured as 3D tumor spheroids assessed as reduction in pseudopodia on cell surface; format: functional, cell-based
# BXPC-3 [31] = experiment: Effect on N-cadherin expression in TGF-beta induced human BXPC-3 cells at 0.1 to 0.5 uM incubated for 24 hrs by immunofluorescence assay; format: functional, cell-based; conditions: dose 0.1-0.5 µM
# BXPC-3 [32] = experiment: Antitumor activity against human BXPC-3 cells xenografted in mouse assessed as reduction in Ki67 expression in tumor at 25 to 50 mg/kg, po administered for 14 days; format: functional, organism-based; conditions: dose 25-50 mg/kg, time 14.0 day
# [33] = Cytotoxicity against mouse NIH/3T3 cells assessed as cell viability incubated for 72 hrs by MTT assay; format: toxicity, cell-based, NIH3T3
# [34] = molecular target: Signal transducer and activator of transcription 3 (Homo sapiens) (UniProt P40763); experiment: Inhibition of STAT3 phosphorylation in human BXPC-3 cells incubated for 24 to 72 hrs by Western blot analysis; format: cell-based; conditions: dose <= 5.0 µM, time 24-72 hrs
# Homo sapiens [35] = organism: Homo sapiens; experiment: Inhibition of SRC (unknown origin) by envision reader analysis
# [36] = molecular target: BDNF/NT-3 growth factors receptor (Homo sapiens) (UniProt Q16620); experiment: Inhibition of TRKB (unknown origin) by envision reader analysis
# [37] = AUC (0 to last) in Sprague-Dawley rat at 5 mg/kg, iv; format: ADME, organism-based; conditions: Sprague-Dawley, in vivo
# MDA-MB-231 [38] = experiment: Inhibition of cell migration in human MDA-MB-231 cells assessed as decrease in cell migration incubated for 24 hrs by wound healing assay; format: functional, cell-based
# [39] = Cytotoxicity against human HEK293 cells assessed as inhibition of cell growth; format: toxicity, cell-based
# [40] = Toxicity in mouse implanted with human BXPC-3 cells assessed as spleen damage at 50 mg/kg, po by H and E staining based analysis; format: organism-based; conditions: in vivo
# Chain of Signal transducer and activator of transcription 3 (Homo sapiens) (P40763 whole entry): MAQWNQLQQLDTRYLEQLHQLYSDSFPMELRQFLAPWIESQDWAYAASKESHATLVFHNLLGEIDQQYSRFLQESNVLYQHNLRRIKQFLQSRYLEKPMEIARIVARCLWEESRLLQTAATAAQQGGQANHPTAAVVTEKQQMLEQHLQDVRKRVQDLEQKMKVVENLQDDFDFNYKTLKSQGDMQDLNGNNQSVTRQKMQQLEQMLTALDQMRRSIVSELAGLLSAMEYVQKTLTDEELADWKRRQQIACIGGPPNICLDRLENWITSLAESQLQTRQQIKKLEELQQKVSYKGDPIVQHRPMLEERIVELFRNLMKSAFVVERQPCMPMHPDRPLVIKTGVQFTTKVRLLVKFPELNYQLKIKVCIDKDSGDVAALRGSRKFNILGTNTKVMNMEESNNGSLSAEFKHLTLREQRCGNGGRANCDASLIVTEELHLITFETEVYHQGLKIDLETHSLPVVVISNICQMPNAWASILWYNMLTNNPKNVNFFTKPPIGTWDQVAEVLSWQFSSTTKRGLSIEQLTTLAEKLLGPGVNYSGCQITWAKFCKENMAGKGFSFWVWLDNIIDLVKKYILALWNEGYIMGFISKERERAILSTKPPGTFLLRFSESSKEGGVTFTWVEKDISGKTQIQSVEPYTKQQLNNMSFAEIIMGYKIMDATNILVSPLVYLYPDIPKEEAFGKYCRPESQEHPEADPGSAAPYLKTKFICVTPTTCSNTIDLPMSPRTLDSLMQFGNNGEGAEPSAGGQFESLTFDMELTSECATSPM
# Chain of Serine/threonine-protein kinase SIK2 (Homo sapiens) (Q9H0K1 whole entry, looked up): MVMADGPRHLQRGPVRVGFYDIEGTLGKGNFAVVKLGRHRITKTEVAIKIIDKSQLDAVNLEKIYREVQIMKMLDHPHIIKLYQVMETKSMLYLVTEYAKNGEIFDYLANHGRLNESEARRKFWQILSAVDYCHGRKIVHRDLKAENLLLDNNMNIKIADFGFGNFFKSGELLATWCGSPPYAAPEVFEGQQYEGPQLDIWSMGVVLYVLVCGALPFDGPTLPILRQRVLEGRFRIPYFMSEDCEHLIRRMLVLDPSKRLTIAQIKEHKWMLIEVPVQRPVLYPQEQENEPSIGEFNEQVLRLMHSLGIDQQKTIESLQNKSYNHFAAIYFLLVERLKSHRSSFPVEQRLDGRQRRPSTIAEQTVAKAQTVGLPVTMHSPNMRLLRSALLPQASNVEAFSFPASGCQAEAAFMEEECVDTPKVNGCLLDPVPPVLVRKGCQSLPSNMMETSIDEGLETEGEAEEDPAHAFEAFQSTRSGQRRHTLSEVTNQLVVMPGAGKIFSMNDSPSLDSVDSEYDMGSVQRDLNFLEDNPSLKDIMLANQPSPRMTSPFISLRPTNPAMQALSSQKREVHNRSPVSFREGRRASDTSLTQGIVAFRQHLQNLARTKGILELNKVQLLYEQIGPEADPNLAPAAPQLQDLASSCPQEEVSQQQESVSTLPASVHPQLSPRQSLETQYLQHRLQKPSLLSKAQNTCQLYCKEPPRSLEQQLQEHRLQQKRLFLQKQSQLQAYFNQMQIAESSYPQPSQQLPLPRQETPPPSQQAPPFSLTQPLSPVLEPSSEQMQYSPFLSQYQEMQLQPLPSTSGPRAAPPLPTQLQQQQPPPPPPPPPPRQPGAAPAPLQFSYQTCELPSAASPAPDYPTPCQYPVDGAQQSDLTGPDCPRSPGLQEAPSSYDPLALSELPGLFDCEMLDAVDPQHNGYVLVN
# Chain of BDNF/NT-3 growth factors receptor (Homo sapiens) (Q16620 32-822 limits assumed): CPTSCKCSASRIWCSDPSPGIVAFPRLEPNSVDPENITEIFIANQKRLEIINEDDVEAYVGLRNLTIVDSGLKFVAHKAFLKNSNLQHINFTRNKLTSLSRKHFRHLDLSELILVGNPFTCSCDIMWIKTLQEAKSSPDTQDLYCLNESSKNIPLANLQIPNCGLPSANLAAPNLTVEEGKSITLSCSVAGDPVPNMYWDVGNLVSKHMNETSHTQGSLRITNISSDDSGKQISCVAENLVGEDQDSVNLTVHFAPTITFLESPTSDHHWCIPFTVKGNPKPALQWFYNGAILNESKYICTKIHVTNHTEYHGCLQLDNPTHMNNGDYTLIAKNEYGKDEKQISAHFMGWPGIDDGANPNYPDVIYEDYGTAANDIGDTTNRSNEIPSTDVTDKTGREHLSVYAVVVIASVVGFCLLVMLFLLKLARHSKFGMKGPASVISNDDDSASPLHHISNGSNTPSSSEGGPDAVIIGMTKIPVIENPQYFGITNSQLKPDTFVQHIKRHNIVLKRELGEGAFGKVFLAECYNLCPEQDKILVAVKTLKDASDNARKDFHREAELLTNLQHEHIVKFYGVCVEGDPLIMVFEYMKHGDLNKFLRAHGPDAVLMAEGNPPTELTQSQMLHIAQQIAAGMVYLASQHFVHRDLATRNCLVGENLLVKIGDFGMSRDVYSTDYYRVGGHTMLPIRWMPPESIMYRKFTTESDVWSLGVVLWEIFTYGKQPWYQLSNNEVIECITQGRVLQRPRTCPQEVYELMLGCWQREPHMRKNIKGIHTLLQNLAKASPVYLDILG
smiles,measurement,setting,value
CCN1CCN(C(C)C(=O)N(C)c2ccc(N/C(=C3\C(=O)Nc4cc(Cl)ccc43)c3ccccc3)cc2)CC1 (racemic),half-life,[1],31.1 min
same,inhibition in vivo at 50 mg/kg,BXPC-3 [2],83%
same,Activity,Mitochondrial membrane [3],Active
same,Activity,MDA-MB-231 [4],Active
same,Activity,Mitochondrial membrane [5],Active
same,Activity,Mitochondrial membrane [6],Active
same,IC50,[7],> 10 µM
same,Activity,NIH3T3 [8],Active
same,Activity,BXPC-3 [9],Active
same,Activity,BXPC-3 [10],Active
same,Activity,[11],Non-toxic
same,IC50 at 72 h,[12],0.43 µM
same,IC50,PC-9,5.91 µM
same,inhibition,Homo sapiens [13],Active
same,Activity,MDA-MB-231 [14],Active
same,bioavailability,[15],6.53%
same,inhibition,MDA-MB-231 [16],Active
same,Activity,MDA-MB-231 [17],Active
same,AUC(0-t),[18],1150 ng·h/mL
same,IC50,SW480,5.91 µM
same,inhibition in vivo at 25 mg/kg,BXPC-3 [19],96.7%
same,Activity,MDA-MB-231 [20],Active
same,Activity,[21],Non-toxic
same,inhibition,HUVEC,Active
same,Activity,BXPC-3 [22],71%
same,Activity,[23],Non-toxic
same,Activity,[24],Non-toxic
same,Activity,BXPC-3 [25],Active
same,inhibition,[26],Active
same,IC50,cells,5.4 µM
same,IC50,MDA-MB-231 [27],1.16 µM
same,inhibition,[28],Dose-dependent-effect
same,Activity,BXPC-3 [29],56.46%
same,Activity,NIH3T3 [30],Active
same,Activity,BXPC-3 [31],Active
same,AC30,BXPC-3 [32],Active
same,IC50 at 72 h,[33],1.14 µM
same,inhibition,[34],Dose-dependent-effect
same,inhibition,Homo sapiens [35],Active
same,inhibition,[36],Active
same,AUC(0-t),[37],1770 ng·h/mL
same,inhibition,MDA-MB-231 [38],Active
same,IC50,[39],> 10 µM
same,Activity,[40],Non-toxic
